13 compounds from US8791132B2, “Compounds and methods for treatment of hypertension” (Medivation Technologies, Inc., priority 2011, dated 2014) can be followed below.

Experiment [1] addresses T1, human recombinant adrenergic α2B receptor (Homo sapiens, UniProt P18089).
T1 construct: expressed in transfected cells; host or cells: CHO-K1
T1 sequence (P18089 1-450): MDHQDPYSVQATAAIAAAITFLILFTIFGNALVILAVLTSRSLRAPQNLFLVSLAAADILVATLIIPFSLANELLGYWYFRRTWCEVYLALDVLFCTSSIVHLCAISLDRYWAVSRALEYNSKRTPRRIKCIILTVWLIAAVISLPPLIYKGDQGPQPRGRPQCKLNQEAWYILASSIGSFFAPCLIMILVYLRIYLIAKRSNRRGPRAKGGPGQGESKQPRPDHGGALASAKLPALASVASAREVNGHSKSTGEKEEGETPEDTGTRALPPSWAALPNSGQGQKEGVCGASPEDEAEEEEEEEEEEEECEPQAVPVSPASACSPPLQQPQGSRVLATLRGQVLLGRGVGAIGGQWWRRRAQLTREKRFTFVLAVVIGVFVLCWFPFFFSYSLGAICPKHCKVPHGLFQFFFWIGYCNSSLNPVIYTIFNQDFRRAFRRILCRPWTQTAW
In words: Radioligand binding, adrenergic α2B ([3H]Rauwolscine). Conditions: for Percentage inhibition of ligand binding, Adrenergic α2B (0.03 μM): compound at 0.03 μM; for Percentage inhibition of ligand binding, Adrenergic α2B (0.03 μM) / inhibition at 0.03 µM / inhibition at 0.1 µM: [3H]Rauwolscine, repeat datapoints each shown; for pKi: read-out: Ki α2B; for inhibition at 0.03 µM: read-out: Percentage inhibition of ligand binding, Adrenergic α2B (0.03 μM), compound at 0.03 μM; for inhibition at 0.1 µM: read-out: Percentage inhibition of ligand binding, Adrenergic α2B (0.1 μM), compound at 0.1 μM. The method in brief:
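Assay used CHO-K1-expressed human α2B receptor in Tris-HCl pH 7.4 buffer with MgCl2, EDTA and BSA; 60 min incubation at 25 °C.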

For experiment [2], the target named is T2, rat adrenergic α1B receptor (Rattus norvegicus, UniProt P15823).
T2 construct: rat adrenergic α1B receptor obtained from Wistar Rat liver; from tissue; host or cells: Wistar rat liver
T2 sequence (P15823 1-515): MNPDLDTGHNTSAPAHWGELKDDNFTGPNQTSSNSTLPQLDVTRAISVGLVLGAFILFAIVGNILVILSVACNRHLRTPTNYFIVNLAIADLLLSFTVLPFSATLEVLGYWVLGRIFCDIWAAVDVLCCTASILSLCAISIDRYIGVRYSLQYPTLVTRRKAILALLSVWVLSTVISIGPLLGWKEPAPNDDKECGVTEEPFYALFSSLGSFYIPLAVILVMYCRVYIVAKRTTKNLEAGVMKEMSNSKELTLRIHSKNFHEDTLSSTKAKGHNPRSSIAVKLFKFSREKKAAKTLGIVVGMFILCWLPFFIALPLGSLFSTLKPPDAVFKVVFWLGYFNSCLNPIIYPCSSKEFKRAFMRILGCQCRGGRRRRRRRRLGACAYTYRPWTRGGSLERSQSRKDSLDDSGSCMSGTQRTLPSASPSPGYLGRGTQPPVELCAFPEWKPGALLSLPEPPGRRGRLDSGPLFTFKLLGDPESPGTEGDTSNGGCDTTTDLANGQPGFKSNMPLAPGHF
The experiment can be described thus: Radioligand binding, adrenergic α1B ([3H]Prazosin). Conditions: [3H]Prazosin, repeat datapoints each shown; for Percentage inhibition of ligand binding, Adrenergic α1B (0.03 μM): compound at 0.03 μM; for Percentage inhibition of ligand binding, Adrenergic α1B (0.1 μM): compound at 0.1 μM; for inhibition at 0.1 µM: read-out: Percentage inhibition of ligand binding, Adrenergic α1B (0.1 μM), compound at 0.1 μM; for inhibition at 0.03 µM: read-out: Percentage inhibition of ligand binding, Adrenergic α1B (0.03 μM), compound at 0.03 μM. The method in brief:
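Specific binding, taken as total minus that remaining with 10 μM phentolamine, is measured after filtration and counting. Rat liver receptor preparation and 0.25 nM [3H]prazosin are incubated with compound in 50 mM Tris-HCl (pH 7.4, 0.5 mM EDTA) at 25° C for 60 min. Activity is reported as percent inhibition.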

Experiment [3] has as its target T3, human recombinant adrenergic α2A receptor (Homo sapiens, UniProt P08913).
T3 construct: expressed in transfected cells; host or cells: insect Sf9 cells
T3 sequence (P08913 1-465): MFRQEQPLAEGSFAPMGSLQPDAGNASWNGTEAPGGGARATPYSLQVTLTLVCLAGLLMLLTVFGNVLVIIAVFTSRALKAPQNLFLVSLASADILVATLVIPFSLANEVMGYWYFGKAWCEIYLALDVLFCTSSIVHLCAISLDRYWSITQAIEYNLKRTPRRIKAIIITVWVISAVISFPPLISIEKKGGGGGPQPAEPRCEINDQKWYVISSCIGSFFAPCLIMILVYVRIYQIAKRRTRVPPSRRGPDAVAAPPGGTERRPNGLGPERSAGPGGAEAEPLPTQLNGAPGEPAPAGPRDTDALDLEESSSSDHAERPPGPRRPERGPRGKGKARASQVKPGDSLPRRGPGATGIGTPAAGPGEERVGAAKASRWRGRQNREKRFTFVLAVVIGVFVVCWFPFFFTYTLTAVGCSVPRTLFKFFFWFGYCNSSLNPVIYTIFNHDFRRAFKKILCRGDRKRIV
In words: Radioligand binding, adrenergic α2A ([3H]MK-912). Conditions: for Percentage inhibition of ligand binding, Adrenergic α2A (0.1 μM): compound at 0.1 μM; for inhibition at 0.1 µM: read-out: Percentage inhibition of ligand binding, Adrenergic α2A (0.1 μM), compound at 0.1 μM. The method in brief:
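Receptor expressed in Sf9 cells, in 50 mM Tris-HCl pH 7.4, 12.5 mM MgCl2, 2 mM EDTA; compounds incubated with 1 nM [3H]MK-912 for 60 min at 25 °C.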

[4] abbreviates: [3H]MK-912, repeat datapoints each shown.

SMILES strings stand for the structures. pKi: −log10 of the molar value. Several values for one entry are separate records, joined by “and”; a condition that tells them apart may be missing. Equal entries are not always repeated.

As for `Cc1ccc2c(c1)c1c(n2CC(OC(=O)C(C)(C)C)c2ccncc2)CCN(C)C1` (single isomer, unassigned) [130a], in experiment [1], the “Percentage inhibition of ligand binding, Adrenergic α2B (0.03 μM)” value stood at 104%; the pKi (as a rule, the negative decadic logarithm of the Ki, by convention in mol/L) was 8.78; the inhibition (as a rule, the drop in the measured response relative to a control, in per cent) at 0.03 µM was 100%; the inhibition at 0.1 µM came out at 107%. In addition, in experiment [2], the “Percentage inhibition of ligand binding, Adrenergic α1B (0.03 μM)” value turned out to be 32%; the “Percentage inhibition of ligand binding, Adrenergic α1B (0.1 μM)” value was 66% and 68%. Moreover, the pKi in experiment [3] was 8.16.
Turning to `Cc1ccc2c(c1)c1c(n2CC(OC(=O)C(C)(C)C)c2ccncc2)CCN(C)C1` (single isomer, unassigned) [130b], the pKi in experiment [1] was 8.60. In experiment [2], the “Percentage inhibition of ligand binding, Adrenergic α1B (0.03 μM)” value was 2%; the “Percentage inhibition of ligand binding, Adrenergic α1B (0.1 μM)” value is 8% and 11%. Also, in experiment [3], the pKi is 7.14. The “Percentage inhibition of ligand binding, Adrenergic α2A (0.03 μM)” value in experiment [3] (compound at 0.03 μM, [3H]MK-912, repeat datapoints each shown, 0.03 µM) is recorded as 13%. Also, the “Percentage inhibition of ligand binding, Adrenergic α2A (0.1 μM)” value in experiment [3] (setting [4]) stood at 31%.
As to `Cc1ccc2c(c1)c1c(n2CC(O)c2cnn(C)c2)CCN(C)C1` (single isomer, unassigned) [131b, 2-(1,2,3,4-tetrahydro-2,8-dimethylpyrido[4,3-b]indol-5-yl)-1-(1-methyl-1H-pyrazol-4-yl)ethanol], in experiment [1], the “Percentage inhibition of ligand binding, Adrenergic α2B (0.03 μM)” value came to 63%; the negative logarithm of the Ki (pKi) is 8.10; the inhibition at 0.03 µM amounted to 53%; the inhibition at 0.1 µM amounted to 90%. Besides, the inhibition at 0.1 µM in experiment [2] worked out at 36%. In addition, the inhibition at 0.1 µM in experiment [3] (setting [4]) worked out at 11%.
Regarding `Cc1ccc2c(c1)c1c(n2CC(O)c2ccncc2C)CCN(C)C1` (single isomer, unassigned) [133b], in experiment [1], the “Percentage inhibition of ligand binding, Adrenergic α2B (0.03 μM)” value worked out at 88%; the pKi was 8.62; the inhibition at 0.03 µM is 87%; the inhibition at 0.1 µM came to 94%. For the same compound, in experiment [2], the “Percentage inhibition of ligand binding, Adrenergic α1B (0.1 μM)” value is 42%; the inhibition at 0.03 µM was determined as 16%; the inhibition at 0.1 µM is 40%. In addition, in experiment [3], the pKi is 7.23. Moreover, in experiment [3] (setting [4]), the “Percentage inhibition of ligand binding, Adrenergic α2A (0.1 μM)” value is 39% and the inhibition at 0.1 µM turned out to be 34%. The inhibition at 0.03 µM in experiment [3] (read-out: Percentage inhibition of ligand binding, Adrenergic α2A (0.03 μM), compound at 0.03 μM, [3H]MK-912, repeat datapoints each shown) is 27%.
Turning to `Cc1cnc2c(c1)c1c(n2CCc2cccnc2)CCN2CCCC12` (single isomer, unassigned) [134b, 9-methyl-6-(2-pyridin-3-yl-ethyl)-2,3,4,5,6,10c-hexahydro-1H-3a,6,7-triaza-cyclopenta[c]fluorene], in experiment [1], the “Percentage inhibition of ligand binding, Adrenergic α2B (0.03 μM)” value is given as 103%; the pKi was 9.37; the inhibition at 0.03 µM came to 102%. Also, in experiment [2], the “Percentage inhibition of ligand binding, Adrenergic α1B (0.1 μM)” value is recorded as 95%; the inhibition at 0.03 µM amounted to 78%; the inhibition at 0.1 µM came out at 93%. Also, the pKi in experiment [3] is 6.99. Besides, in experiment [3] (setting [4]), the “Percentage inhibition of ligand binding, Adrenergic α2A (0.1 μM)” value was 29% and the inhibition at 0.1 µM was found to be 23%.
Turning to `Cc1ccc2c(c1)c1c(n2CC(O)c2ccncc2Cl)CCN(C)C1` (single isomer, unassigned) [135a], the “Percentage inhibition of ligand binding, Adrenergic α2B (0.03 μM)” value in experiment [1] was determined as 42%. Also, the “Percentage inhibition of ligand binding, Adrenergic α1B (0.1 μM)” value in experiment [2] is on record as 60%. For the same compound, the “Percentage inhibition of ligand binding, Adrenergic α2A (0.1 μM)” value in experiment [3] (setting [4]) amounted to 4%.
On to `Cc1ccc2c(c1)c1c(n2CC(O)c2ccncc2Cl)CCN(C)C1` (single isomer, unassigned) [135b], for which the “Percentage inhibition of ligand binding, Adrenergic α2B (0.03 μM)” value in experiment [1] came to 68%. For the same compound, in experiment [2], the “Percentage inhibition of ligand binding, Adrenergic α1B (0.1 μM)” value is 30%. Also, the “Percentage inhibition of ligand binding, Adrenergic α2A (0.1 μM)” value in experiment [3] (setting [4]) came out at 22%.
In the case of `Cc1cnc2c(c1)c1c(n2CC(O)c2ccc(F)cc2)CCN(C)C1` (single isomer, unassigned) [136a], in experiment [1], the “Percentage inhibition of ligand binding, Adrenergic α2B (0.03 μM)” value is 34%. The “Percentage inhibition of ligand binding, Adrenergic α1B (0.1 μM)” value in experiment [2] worked out at 54%. In addition, in experiment [3] (setting [4]), the inhibition at 0.1 µM came to 16%.
As for `Cc1ccc(CCn2c3c(c4cc(Cl)cnc42)C2CCCN2CC3)cn1` (single isomer, unassigned) [137b], the “Percentage inhibition of ligand binding, Adrenergic α2B (0.03 μM)” value in experiment [1] is listed as 30%. Moreover, in experiment [2], the “Percentage inhibition of ligand binding, Adrenergic α1B (0.1 μM)” value came out at 23%. Further, the “Percentage inhibition of ligand binding, Adrenergic α2A (0.1 μM)” value in experiment [3] (setting [4]) is 6%.
In the case of `Cc1ccc2c(c1)c1c(n2CC(O)c2ccc(C(N)=O)cc2)CCN(C)C1` (single isomer, unassigned) [139a, 4-[2-(2,8-dimethyl-1,2,3,4-tetrahydro-pyrido[4,3-b]indol-5-yl)-1-hydroxy-ethyl]-benzamide], in experiment [1], the “Percentage inhibition of ligand binding, Adrenergic α2B (0.03 μM)” value was determined as 101%; the pKi is 8.63; the inhibition at 0.03 µM was found to be 88%. Moreover, the inhibition at 0.1 µM in experiment [2] came to 17%. The inhibition at 0.1 µM in experiment [3] (setting [4]) was found to be 16%.
Regarding `Cc1ccc2c(c1)c1c(n2CC(O)c2ccc(C(N)=O)cc2)CCN(C)C1` (single isomer, unassigned) [139b, 4-[2-(2,8-dimethyl-1,2,3,4-tetrahydro-pyrido[4,3-b]indol-5-yl)-1-hydroxy-ethyl]-benzamide], the “Percentage inhibition of ligand binding, Adrenergic α2B (0.03 μM)” value in experiment [1] is given as 59%. For the same compound, the “Percentage inhibition of ligand binding, Adrenergic α1B (0.1 μM)” value in experiment [2] is recorded as 11%. In addition, the “Percentage inhibition of ligand binding, Adrenergic α2A (0.1 μM)” value in experiment [3] (setting [4]) stood at 6%.
As for `Cc1ccc2c(c1)c1c(n2CC(O)c2ccc(C#N)nc2)CCN(C)C1` (single isomer, unassigned) [140a, 5-[2-(2,8-dimethyl-1,2,3,4-tetrahydro-pyrido[4,3-b]indol-5-yl)-1-hydroxy-ethyl]-pyridine-2-carbonitrile], in experiment [1], the “Percentage inhibition of ligand binding, Adrenergic α2B (0.03 μM)” value is 76%. For the same compound, the “Percentage inhibition of ligand binding, Adrenergic α1B (0.1 μM)” value in experiment [2] amounted to 59%. Besides, the “Percentage inhibition of ligand binding, Adrenergic α2A (0.1 μM)” value in experiment [3] (setting [4]) is recorded as 11%.
Regarding `Cc1ccc2c(c1)c1c(n2CC(O)c2ccc(C#N)nc2)CCN(C)C1` (single isomer, unassigned) [140b, 5-[2-(2,8-dimethyl-1,2,3,4-tetrahydro-pyrido[4,3-b]indol-5-yl)-1-hydroxy-ethyl]-pyridine-2-carbonitrile], the “Percentage inhibition of ligand binding, Adrenergic α2B (0.03 μM)” value in experiment [1] is listed as 52%. For the same compound, the “Percentage inhibition of ligand binding, Adrenergic α1B (0.1 μM)” value in experiment [2] came out at 18%. Besides, in experiment [3] (setting [4]), the “Percentage inhibition of ligand binding, Adrenergic α2A (0.1 μM)” value was 3%.
